Results taken from PubChem BioAssay AID2060497 (Molecular Pharmacology Branch, DTP, NCI, 2025).

System: 317291-083-R-J1-PDC complex spheroids, viability
Assay: Anticancer human tumor 317291-083-R-J1-PDC patient-derived soft tissue sarcoma cell line growth inhibition [GQUAD]
Conditions: for IC50: curve of first compound; for viability, T/C: stronger effect = lower value
Outline: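 Tumor cells were grown as complex spheroids with HUVEC endothelial cells and mesenchymal stem cells as stroma. G-quadruplex stabilizers were combined with targeted agents over half-log dilutions from near the clinical Cmax, or from 10 microM.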
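Also: spheroids exposed to compounds for one week before readout.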
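For viability, T/C in this document: percent viability relative to DMSO vehicle wells taken as 100%.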

CC(C)n1c(=O)n(C)c2cnc3cc(F)c(-c4ccc(OCCCN5CCCCC5)nc4)cc3c21 + CN(C)c1ccc(Nc2c3ccc(NC(=O)CCN4CCCC4)cc3nc3cc(NC(=O)CCN4CCCC4)ccc23)cc1
IC50 (second compound 0.0316 µM): 6620 nM
IC50 (second compound 0.1 µM): 3820 nM
IC50 (second compound 0.316 µM): 784 nM
IC50 (second compound 1 µM): 42.8 nM
IC50 (second compound 3.16 µM): < 31.6 nM
IC50 (second compound 10 µM): < 31.6 nM
viability, T/C (second compound 0.0316 µM, first compound 0.0316 µM): 96.6%
viability, T/C (second compound 0.0316 µM, first compound 0.1 µM): 88.6%
viability, T/C (second compound 0.0316 µM, first compound 0.316 µM): 92.1%
viability, T/C (second compound 0.0316 µM, first compound 1 µM): 86.7%
viability, T/C (second compound 0.0316 µM, first compound 3.16 µM): 79%
viability, T/C (second compound 0.0316 µM, first compound 10 µM): 34.3%
viability, T/C (second compound 0.1 µM, first compound 0.0316 µM): 92.9%
viability, T/C (second compound 0.1 µM, first compound 0.1 µM): 79.9%
viability, T/C (second compound 0.1 µM, first compound 0.316 µM): 96.3%
viability, T/C (second compound 0.1 µM, first compound 1 µM): 81.9%
viability, T/C (second compound 0.1 µM, first compound 3.16 µM): 56%
viability, T/C (second compound 0.1 µM, first compound 10 µM): 20.6%
viability, T/C (second compound 0.316 µM, first compound 0.0316 µM): 92.8%
viability, T/C (second compound 0.316 µM, first compound 0.1 µM): 65%
viability, T/C (second compound 0.316 µM, first compound 0.316 µM): 57.6%
viability, T/C (second compound 0.316 µM, first compound 1 µM): 47.2%
viability, T/C (second compound 0.316 µM, first compound 3.16 µM): 49.6%
viability, T/C (second compound 0.316 µM, first compound 10 µM): 10.5%
viability, T/C (second compound 1 µM, first compound 0.0316 µM): 53.7%
viability, T/C (second compound 1 µM, first compound 0.1 µM): 44.7%
viability, T/C (second compound 1 µM, first compound 0.316 µM): 24.4%
viability, T/C (second compound 1 µM, first compound 1 µM): 34.4%
viability, T/C (second compound 1 µM, first compound 3.16 µM): 20.1%
viability, T/C (second compound 1 µM, first compound 10 µM): 7.52%
viability, T/C (second compound 3.16 µM, first compound 0.0316 µM): 31.8%
viability, T/C (second compound 3.16 µM, first compound 0.1 µM): 12.2%
viability, T/C (second compound 3.16 µM, first compound 0.316 µM): 12.3%
viability, T/C (second compound 3.16 µM, first compound 1 µM): 4.69%
viability, T/C (second compound 3.16 µM, first compound 3.16 µM): 4.81%
viability, T/C (second compound 3.16 µM, first compound 10 µM): 1.25%
viability, T/C (second compound 10 µM, first compound 0.0316 µM): 27.5%
viability, T/C (second compound 10 µM, first compound 0.1 µM): 3.95%
viability, T/C (second compound 10 µM, first compound 0.316 µM): 0.88%
viability, T/C (second compound 10 µM, first compound 1 µM): 0.42%
viability, T/C (second compound 10 µM, first compound 3.16 µM): 0.55%
viability, T/C (second compound 10 µM, first compound 10 µM): 4.73%
